{"source": "paper PMC7355430", "about": "“Imunofan—RDKVYR Peptide—Stimulates Skin Cell Proliferation and Promotes Tissue Repair” (Molecules, 2020)", "assay_type_in_all_cases": "cell-based, human", "key": {"ASCs": {"system": "ASCs", "experiment": "XTT proliferation assay", "conditions": "48 h, 1.0 and 10 µg/mL, serum-free DMEM, n=16", "protocol": "(§1) XTT assay, which is widely used in the measurement of the effect of bioactive compounds (e.g., cytokines, growth factors, and peptides) on cell proliferation was used for the evaluation of IM effect on skin cells and ASCs proliferation. Cells were seeded at a density of 5000 cells per well into 96-well plates (BD, cat.no. 353872), in a medium supplemented with 10% of FBS, which after 24 h was exchanged for a serum-free DMEM medium containing appropriate concentrations of the IM peptide. IM solutions used in the experiments were prepared with double distilled water under sterile conditions. The cells were incubated with the peptide for 48 h or 72 h, then XTT reagent was added and the plates were incubated at 37 °C for 4 h in the presence of 5% CO2, following manufacturer’s instructions (Sigma-Aldrich, St. Louis, MO, USA). Plates were then read using a standard plate reader at OD 490 nm. Cell proliferation was normalized with respect to an untreated control (100%)."}, "46BR.1N fibroblasts": {"system": "46BR.1N fibroblasts", "experiment": "XTT proliferation assay", "conditions": "48 h, 0.1–100 µg/mL, serum-free DMEM, n=16", "protocol": "as §1"}, "HaCaT keratinocytes": {"system": "HaCaT keratinocytes", "experiment": "XTT proliferation assay", "protocol": "as §1"}, "dendritic cells (DC)": {"system": "dendritic cells (DC)", "experiment": "Dendritic cell activation in PBMCs, flow cytometry", "conditions": "0.1 and 1.0 µg/mL, 48 h, active phenotype CD11+, CD80+, CD83+", "protocol": "Immunological tests were conducted on human peripheral blood mononuclear cells, isolated from “buffy coats” using a ficoll density gradient (Histopaque, Sigma-Aldrich, St. Louis, MO, USA). Buffy coats for were obtained from blood of healthy anonymous donors of the Regional Center of Blood Donation and Blood Therapy in Gdansk, Poland. After washing in PBS, erythrocyte lysis, and cell counting (cell counter, Bio-Rad), the PBMCs were seeded onto a 24-well culture plate at a density of 10^6 cells/1 mL of RPMI 1640 (Penicillin/Streptomycin, 10% FBS) per well. After cell resting for 24 h, cells were stimulated with IM peptide (0.1 µg/mL and 1.0 µg/mL) for the next 48 h under appropriate conditions (37 °C, 5% CO2). The untreated cells were used as a negative control, whereas cells stimulated with LPS (1 µg/mL) and PHA (2.5 µg/mL) were a positive control. After incubation, the PBMCs were collected, washed with PBS, counted and prepared for flow cytometry analysis. 10^4 cells/100 µl were stained with monoclonal, fluorochrome-conjugated antibodies (anti-CD3, -CD4, -CD8, -CD16, -CD56, -CD25, -CD69, -CD71, -HLA-DR, -CD11c, -CD80, and -CD83) and incubated for 30 min in RT in the dark. Stained cells were analyzed using a flow cytometer (LSRFortessa, BD, USA). All data are presented as percentages due to the application of hospital diagnostic laboratory standards for immune cells analyses."}}, "note": "Peptide text beside a SMILES is read from it."}
{"smiles": "CC(C)[C@H](NC(=O)[C@H](CCCCN)NC(=O)[C@H](CC(=O)O)NC(=O)[C@@H](N)CCCNC(=N)N)C(=O)N[C@@H](Cc1ccc(O)cc1)C(=O)N[C@@H](CCCNC(=N)N)C(=O)O", "note": "[IM, H-Arg-Asp-Lys-Val-Tyr-Arg-OH] (H-RDKVYR-OH)", "values": [{"measurement": "increase in proliferation", "setting": "ASCs", "value": 10, "unit": "%"}, {"measurement": "increase in proliferation compared to the control", "setting": "46BR.1N fibroblasts", "value": "20–40%"}, {"measurement": "increase in cell proliferation", "setting": "HaCaT keratinocytes; 48 h, 0.1 and 1 µg/mL, serum-free DMEM, XTT, n=16", "value": "20–50%"}, {"measurement": "increase in proliferation of keratinocytes (abstract)", "setting": "HaCaT keratinocytes; as summarised in the abstract, p < 0.05", "value": "20–50%"}, {"measurement": "activation of dendritic cells", "setting": "dendritic cells (DC)", "value": "not activated"}]}
